Measurements published in patent US20250228873A1, “C25 R AND S ISOMERS OF AMINOSTEROLS AND METHODS OF MAKING AND USING THE SAME” (Enterin, Inc., priority 2022, published 2025).
Where two headings read alike, the source gives them in different places.

Experiments:
Test in all cases: Phosphatase panel, DiFMUP fluorescence assay
Format in all cases: biochemical
PP1B = biological target: T1, PP1B (Homo sapiens, UniProt P62140)
T1 construct: purchased Recation Biology Inc

PTPRC/CD45 = biological target: T2, PTPRC/CD45 (Homo sapiens, UniProt P08575)
T2 construct: purchased Recation Biology Inc
T2 sequence (P08575 26-1306): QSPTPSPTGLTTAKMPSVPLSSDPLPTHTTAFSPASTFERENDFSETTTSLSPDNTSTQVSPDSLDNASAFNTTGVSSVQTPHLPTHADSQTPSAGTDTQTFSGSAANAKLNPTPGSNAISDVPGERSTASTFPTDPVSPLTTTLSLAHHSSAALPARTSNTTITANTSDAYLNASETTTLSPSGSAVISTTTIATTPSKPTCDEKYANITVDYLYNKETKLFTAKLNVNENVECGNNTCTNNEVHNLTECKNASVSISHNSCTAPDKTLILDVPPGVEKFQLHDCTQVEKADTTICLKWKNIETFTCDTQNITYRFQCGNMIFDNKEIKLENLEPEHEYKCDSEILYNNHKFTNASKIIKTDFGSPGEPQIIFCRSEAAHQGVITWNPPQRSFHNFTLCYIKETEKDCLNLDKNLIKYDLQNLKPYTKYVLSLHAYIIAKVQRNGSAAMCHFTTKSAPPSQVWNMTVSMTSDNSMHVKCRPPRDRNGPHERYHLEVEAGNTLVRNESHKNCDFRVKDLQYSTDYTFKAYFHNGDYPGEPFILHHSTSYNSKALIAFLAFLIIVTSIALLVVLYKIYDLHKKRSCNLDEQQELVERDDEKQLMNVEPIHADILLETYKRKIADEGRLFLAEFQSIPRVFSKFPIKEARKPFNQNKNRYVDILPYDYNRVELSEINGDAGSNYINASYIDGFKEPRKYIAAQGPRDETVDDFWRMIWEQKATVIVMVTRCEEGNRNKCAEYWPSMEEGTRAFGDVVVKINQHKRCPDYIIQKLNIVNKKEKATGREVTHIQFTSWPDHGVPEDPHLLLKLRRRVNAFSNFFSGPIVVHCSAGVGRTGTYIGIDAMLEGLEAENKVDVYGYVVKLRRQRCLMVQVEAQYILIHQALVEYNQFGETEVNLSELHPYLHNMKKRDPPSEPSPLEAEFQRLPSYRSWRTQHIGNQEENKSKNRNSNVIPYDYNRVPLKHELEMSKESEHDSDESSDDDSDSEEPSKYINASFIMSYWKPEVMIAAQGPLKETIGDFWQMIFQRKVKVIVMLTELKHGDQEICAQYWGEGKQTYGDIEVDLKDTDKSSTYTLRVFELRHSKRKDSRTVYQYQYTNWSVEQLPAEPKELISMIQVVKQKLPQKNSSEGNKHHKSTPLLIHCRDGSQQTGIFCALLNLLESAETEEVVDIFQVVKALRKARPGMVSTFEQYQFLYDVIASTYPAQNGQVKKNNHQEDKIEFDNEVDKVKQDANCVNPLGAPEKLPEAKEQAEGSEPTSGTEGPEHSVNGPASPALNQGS

DUSP22/MKPX = biological target: T3, DUSP22/MKPX (Homo sapiens, UniProt Q9NRW4)
T3 construct: purchased Recation Biology Inc
T3 sequence (Q9NRW4 1-184): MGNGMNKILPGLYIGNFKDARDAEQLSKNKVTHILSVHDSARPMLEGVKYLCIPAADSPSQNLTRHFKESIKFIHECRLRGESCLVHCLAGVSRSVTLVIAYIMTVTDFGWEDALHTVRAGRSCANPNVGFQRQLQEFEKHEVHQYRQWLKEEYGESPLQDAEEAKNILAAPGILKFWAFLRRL

PTPN2/TC-PTP = biological target: T4, PTPN2/TC-PTP (Homo sapiens, UniProt P17706)
T4 construct: purchased Recation Biology Inc
T4 sequence (P17706 1-415): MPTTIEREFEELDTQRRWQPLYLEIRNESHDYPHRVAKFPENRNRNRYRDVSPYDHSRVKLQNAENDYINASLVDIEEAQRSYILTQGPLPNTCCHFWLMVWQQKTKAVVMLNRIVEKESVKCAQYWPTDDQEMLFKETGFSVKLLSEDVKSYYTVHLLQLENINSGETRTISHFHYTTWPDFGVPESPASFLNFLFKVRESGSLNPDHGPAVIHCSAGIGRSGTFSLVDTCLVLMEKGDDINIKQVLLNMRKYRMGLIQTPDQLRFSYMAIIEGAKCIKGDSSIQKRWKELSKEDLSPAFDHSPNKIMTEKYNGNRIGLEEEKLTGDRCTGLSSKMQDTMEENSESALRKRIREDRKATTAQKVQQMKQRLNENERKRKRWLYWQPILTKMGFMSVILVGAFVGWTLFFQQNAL

PTPN11/SHP2 = biological target: T5, PTPN11/SHP2 (Homo sapiens, UniProt Q06124); details: read-out: inhibitory activity PTPN11/SHP
T5 sequence (Q06124 1-593): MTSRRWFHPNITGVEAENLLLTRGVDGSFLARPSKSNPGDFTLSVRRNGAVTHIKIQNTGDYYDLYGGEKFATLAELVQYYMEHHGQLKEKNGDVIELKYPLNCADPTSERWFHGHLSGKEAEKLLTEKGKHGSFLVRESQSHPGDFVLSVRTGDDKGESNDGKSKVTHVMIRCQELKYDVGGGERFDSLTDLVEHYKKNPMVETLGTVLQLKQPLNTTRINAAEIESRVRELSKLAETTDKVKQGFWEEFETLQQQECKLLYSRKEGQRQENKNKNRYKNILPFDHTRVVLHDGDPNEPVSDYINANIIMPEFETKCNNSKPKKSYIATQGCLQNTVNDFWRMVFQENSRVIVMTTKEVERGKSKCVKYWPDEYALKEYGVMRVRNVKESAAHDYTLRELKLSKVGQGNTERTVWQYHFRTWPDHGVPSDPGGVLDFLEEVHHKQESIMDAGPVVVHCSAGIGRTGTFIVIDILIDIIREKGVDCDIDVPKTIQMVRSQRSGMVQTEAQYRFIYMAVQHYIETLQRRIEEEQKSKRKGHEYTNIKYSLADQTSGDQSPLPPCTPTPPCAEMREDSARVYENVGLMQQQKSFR

[1] = Table 19A, read-out: inhibitory activity PP1B
[2] = Table 19A, read-out: inhibitory activity PTPRC/CD45
[3] = Table 19A, read-out: inhibitory activity DUSP22/MKPXPT
[4] = Table 19B, read-out: inhibitory activity PTPN2/TC-PTP
[5] = Table 5B, read-out: Compound IC50 (M) PTPRC/CD45
[6] = Table 5B, read-out: Compound IC50 (M) DUSP22/MKPX

T1 sequence (P62140 whole entry): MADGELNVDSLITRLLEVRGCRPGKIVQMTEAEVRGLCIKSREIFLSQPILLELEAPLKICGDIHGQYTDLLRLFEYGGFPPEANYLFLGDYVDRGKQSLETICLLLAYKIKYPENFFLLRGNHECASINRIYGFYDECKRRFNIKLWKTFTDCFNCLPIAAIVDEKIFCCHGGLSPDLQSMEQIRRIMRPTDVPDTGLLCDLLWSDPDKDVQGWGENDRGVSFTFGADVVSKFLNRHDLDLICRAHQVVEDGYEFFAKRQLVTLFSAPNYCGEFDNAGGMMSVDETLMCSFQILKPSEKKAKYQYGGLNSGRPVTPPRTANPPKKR

| SMILES | IC50 (PP1B; [1]) [M] | IC50 (PTPRC/CD45; [2]) [M] | IC50 (DUSP22/MKPX; [3]) [M] | IC50 (PTPN2/TC-PTP; [4]) [M] | IC50 (PTPN11/SHP2; Table 19A) [nM] | IC50 (PP1B; Table 18A, read-out: inhibitory activity PP1B) [M] | IC50 (PTPRC/CD45; Table 18A, read-out: inhibitory activity PTPRC/CD45) [M] | IC50 (DUSP22/MKPX; Table 18A, read-out: inhibitory activity DUSP22/MKPX) [M] | IC50 (PTPN2/TC-PTP; Table 18B, read-out: inhibitory activity PTPN2/TC-PTP) [M] | IC50 (PTPN11/SHP2; Table 18A) [nM] | activity at PP1B (PP1B) | IC50 (PP1B; Table 5B, read-out: Compound IC50 (M) PP1B) [M] | IC50 (PTPRC/CD45; [5]) [M] | IC50 (DUSP22/MKPX; [6]) [M] | activity at PTPN2 (PTPN2/TC-PTP) | IC50 (PTPN2/TC-PTP; Table 5C, read-out: Compound IC50 (M) PTPN2/TC-PTP) [M] |
| --- | --- | --- | --- | --- | --- | --- | --- | --- | --- | --- | --- | --- | --- | --- | --- | --- |
| CC(CCC[C@@H](C)[C@H]1CCC2C3C(CC[C@@]21C)[C@@]1(C)CC[C@H](NCCCNCCCCN)C[C@@H]1C[C@H]3O)C(=O)O (single isomer, unassigned) [ENT-06] | > 0.0001 | 1.22e-06 | 2.09e-06 | > 0.0001 | 3450 | – | – | – | – | – | – | – | – | – | – | – |
| CC(CCC[C@@H](C)[C@H]1CCC2C3C(CC(O)[C@@]21C)[C@@]1(C)CC[C@H](NCCCNCCCCN)C[C@@H]1C[C@H]3O)C(=O)O (single isomer, unassigned) [ENT-05] | – | – | – | – | – | > 0.0001 | > 0.0001 | > 0.0001 | > 0.0001 | 18400 | – | – | – | – | – | – |
| CC(CCC[C@@H](C)[C@H]1CCC2C3C(CC[C@@]21C)[C@@]1(C)CC[C@H](NCCCNCCCCNCCCN)C[C@@H]1C[C@H]3O)C(=O)O (single isomer, unassigned) [ENT-03] | > 0.0001 | 5.17e-07 | 1.38e-06 | > 0.0001 | 5000 | – | – | – | – | – | inactive | > 0.0001 | 5.71e-07 | 1.38e-06 | inactive | > 0.0001 |
| CC(C)[C@@H](CC[C@@H](C)[C@H]1CC[C@H]2[C@@H]3[C@H](O)C[C@H]4C[C@@H](NCCCNCCCCNCCCN)CC[C@]4(C)[C@H]3CC[C@]12C)OS(=O)(=O)O (single isomer, unassigned) [ENT-02 (MSI-1436), trodusquemine] | – | – | – | – | – | – | – | – | – | – | – | – | 4.94e-07 | 6.39e-07 | – | – |
